Experimental data published in paper PMC8318206 (ACS catalysis, 2020).
Values joined by “and” are separate entries in the source; they are usually repeats but may differ in a detail not shown here. Equal entries are not always repeated. “Also recorded” adds a separate entry of the source. Where two headings read alike, the source gives them in different places.

Columns and labels:
P450cam [1] = biological target: T1, P450cam (Pseudomonas putida, UniProt P00183); settings: reported previously; cited from earlier work
P450cam [2] = biological target: T1, P450cam; assay: Steady-state substrate binding titrations; settings: for Reversal of the high-spin spectral change at high ligand concentration: camphor up to 2 mM
Solubility in H2O = format: physicochemical; settings: water
P450cam [3] = biological target: T1, P450cam; assay: Catalytic activity: NADH oxidation with Pdx and PdR; format: biochemical; settings: for Rate/Kd (specificity constant): NADH oxidation rate divided by Kd
P450cam [4] = biological target: T1, P450cam; assay: Stopped-flow ligand binding kinetics; settings: for Dominant binding mechanism: from dependence of eigenvalues on ligand and P450cam concentration; for Binding rate measurable by stopped-flow (ΔA390-A420): dead time 2 ms
P450cam [5] = biological target: T1, P450cam; settings: cited from earlier work
P450cam [6] = biological target: T1, P450cam; assay: Estimation of koff for the P450cam·camphor complex by metyrapone trapping; format: binding
P450tcu = settings: 5-exo hydroxylation; cited from earlier work
P450cam·Pdx complex = settings: ref Hollingsworth et al., 46; cited from earlier work
[7] = 20 mM potassium MOPS (pH 7.4), 200 mM KCl
[8] = eigenvalues vs camphor concentration
[9] = fit to λ = kf + kr·S/(Kd + S), induced fit model

Row | Compound | Kd (P450cam [1]) | Kd (P450cam [2]) [µM] | solubility (Solubility in H2O) [µM] | % relative to camphor (Rate/Kd) (P450cam [3]) [%] | Rate/Kd (specificity constant) (P450cam [3]) [M⁻¹ s⁻¹] | Dominant binding mechanism (P450cam [4]) | Specificity constant (rate/Kd) (P450cam [5]; reported by others, ref 54) [M⁻¹ s⁻¹] | Reversal of the high-spin spectral change at high ligand concentration (P450cam [2]; [7]) | Binding rate measurable by stopped-flow (ΔA390-A420) (P450cam [4]) | NADH coupling (P450cam [5]) [%] | also measured
1 | O=C1C2CC3CC(C2)CC1C3 [2-adamantanone] | 34 µM and 45 µM | 2.7 | ≥ 2000 | 19 | 1.3e+06 | conformational selection | 240000 | – | – | – | Exponential of binding (P450cam [4]; 2 μM 2-adamantanone and 1 μM P450cam): 72 s⁻¹; Exponential of binding (P450cam [4]; 2 μM 2-adamantanone and 10 μM P450cam): 82 s⁻¹; kobs of binding (P450cam [4]; 2 μM P450cam and 4 μM 2-adamantanone): 78 ± 2 s⁻¹; Oxidation rate (P450cam [5]; ref White et al., 54): ~ 1 s^−1; Oxidation rate (P450cam [5]; ref White et al., 54, listed as 2-Adamantone): 1 s⁻¹
2 | CC1(C)CC(=O)CC(C)(C)C1 [3,3,5,5-tetramethylcyclohexanone] | 3.5 µM | 5 | ≥ 2000 | 0.6 | 40000 | – | – | did reverse the spin state change at higher concentrations | changes could not be observed | – | –
3 | CC(C)(C(=O)c1cccnc1)c1cccnc1 [metyrapone] | – | – | – | – | – | – | – | – | – | – | First-order rate of binding to ligand-free P450cam (k2) (P450cam [6]; 2 mM metyrapone (final)): 18.9 s⁻¹
4 | O=C1CC2CC[C@H]1C2 [norcamphor] | 350 µM | 250 | ≥ 50000 | – | 70000 | – | – | – | changes could not be observed | 15 | –
5 | (+)-α-pinene | 1.1 µM | – | – | – | – | conformational selection | – | – | – | 23 | Kd (P450cam [2]; 20 mM potassium MOPS (pH 7.4), 200 mM KCl, absence of Pdx, 23 °C): 3.4 µM; kobs of binding (P450cam [4]; 2 μM P450cam and 30 μM (+)-α-pinene): 81 ± 3 s⁻¹; Specificity constant (rate/Kd) (P450cam [5]; based on NADH oxidation): 1.3e+06 M⁻¹ s⁻¹; Specificity constant (rate/Kd) (P450cam [5]; based on product formation): 300000 M⁻¹ s⁻¹; Oxidation rate (P450cam [5]; ref Bell et al., 37): 0.3 s⁻¹
6 | d-(+)-camphor | – | – | – | 100 | 7e+06 | induced fit mechanism | 340000 | no reversal of the high-spin spectral change was observed; also recorded: did not show any evidence for reversal | – | – | kcat (P450tcu): ~ 10 s^−1; koff (k-1) of the P450cam·camphor complex (P450cam [6]; 2 μM P450cam, 10 μM camphor mixed with 2 mM metyrapone, KinTek Explorer fit): 15 s⁻¹; kon in the minimal kinetic model (P450cam [6]; fit with koff = 15 s^−1 and Kd = […] μM): 1.5e+07 M⁻¹ s⁻¹; Increase of the Kd of a P450cam·Pdx complex in the presence of camphor (P450cam·Pdx complex): 2 fold; Eigenvalue λ of binding (P450cam [4]; 6 μM P450cam mixed with 2 μM camphor): 69 ± 2 s⁻¹; Intercept of linear regression of eigenvalues (koff, 2-state system) (P450cam [4]; [8]): 35 ± 4 s⁻¹; Slope of linear regression of eigenvalues (second-order kon, 2-state system) (P450cam [4]; [8]): 2.4 (± 0.3) × 10^6 M^−1 s^−1 and 2.4 (± 0.3) M^−1 s^−1; kf (kforward), forward rate constant following camphor binding (P450cam [4]; [9]): 112 s⁻¹ and 112 ± 49 s⁻¹; kr (kreverse), reverse rate constant (P450cam [4]; [9]): 28 s⁻¹ and 28 ± 7 s⁻¹; kcat (P450cam [5]; Km based on O2 as co-substrate): 55 to 66 s⁻¹; Rate of 5-exo hydroxylation (P450cam [5]): > 10 s⁻¹; Specificity constant (rate/Kd) (P450cam [5]; reported by others, ref 57): 1.6e+07 M⁻¹ s⁻¹; Rate on the basis of NADH oxidation (P450cam [5]; typically reported): 7 to 14 s⁻¹
